One may read the TGI as the concentration at which net growth stops. A higher TGI goes with lower sensitivity of the cells. As a reminder, the GI50 is the concentration that inhibits growth by half.

Structures are written as SMILES. Values joined by “and” are separate entries in the source; they are usually repeats but may differ in a detail not shown here. Equal values may be shown once.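 Interpolation was linear, between the two tested concentrations surrounding the appropriate level; five concentrations were tested over 48 hours in 96-well plates. GI50 is the concentration that inhibits growth by half. TGI denotes the concentration required for complete inhibition of growth.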 Some results are limits rather than exact numbers.

In one assay the test system is BT-549 breast. Briefly: DTP human tumour cell line panel, 48 h.
The compound `CC[C@](C)(O)C(=O)O[C@H]1C(=O)O[C@@H]2C[C@H]3C(C)=CC(=O)[C@@H](O)[C@]3(C)[C@H]3[C@@]4(O)OC[C@]32[C@@H]1[C@@H](C)[C@H]4O` showed a TGI of 6.76 µM.
Take `CCN1C(=O)N(CC)C2C1NN=c1s/c(=C3\C(=O)N(C(C)C)c4ccccc43)c(=O)n12` (stereo not drawn): the GI50 was 1.38 µM and the TGI was 66.4 µM.
On to `NC(=O)[C@H]1CCN(c2ncnc(N)c2F)C[C@@H]1N1CCC[C@@H](Nc2cc(Cl)cc(C(F)(F)F)c2)C1=O`, for which the GI50 was 21.4 µM and the TGI was found to be 51.1 µM.
`CCN(CC)c1ccc(/C=C/c2cc(C)c3ccccc3n2)cc1`: the GI50 is 10.3 µM and the TGI came to 62.9 µM.
For the compound `Cc1ccc2[nH]c(C(=O)NN3C(=O)CSC34CCCCC4C)c(-c3ccccc3)c2c1` (stereo not drawn), the GI50 is 20 µM and the TGI was determined as 36.7 µM.
For `O=C(CCl)c1ccc([N+](=O)[O-])o1`, in that order: 2.24 µM and 6.85 µM.

The subject of the next assay is CAKI-1 renal. The assay can be described thus: DTP human tumour cell line panel, 48 h.
`CC[C@](C)(O)C(=O)O[C@H]1C(=O)O[C@@H]2C[C@H]3C(C)=CC(=O)[C@@H](O)[C@]3(C)[C@H]3[C@@]4(O)OC[C@]32[C@@H]1[C@@H](C)[C@H]4O`: the GI50 is 0.577 µM and 0.158 µM; the TGI was 8.8 µM and 1.35 µM.
Take `CCN1C(=O)N(CC)C2C1NN=c1s/c(=C3\C(=O)N(C(C)C)c4ccccc43)c(=O)n12` (stereo not drawn): the GI50 was 0.423 µM and the TGI was above 54.4 µM.
`NC(=O)[C@H]1CCN(c2ncnc(N)c2F)C[C@@H]1N1CCC[C@@H](Nc2cc(Cl)cc(C(F)(F)F)c2)C1=O`: the GI50 was 6.67 µM and the TGI was 89.7 µM.
`CCN(CC)c1ccc(/C=C/c2cc(C)c3ccccc3n2)cc1`: the GI50 is 1.93 µM and the TGI came out at 13.4 µM.
For the compound `Cc1ccc2[nH]c(C(=O)NN3C(=O)CSC34CCCCC4C)c(-c3ccccc3)c2c1` (stereo not drawn), the GI50 was 16.1 µM and the TGI is 32.2 µM.
As to `O=C(CCl)c1ccc([N+](=O)[O-])o1`, the GI50 is 1.73 µM and the TGI is 3.24 µM.

Another assay concerns DU-145 prostate. The assay can be described thus: DTP human tumour cell line panel, 48 h.
Compound `CC[C@](C)(O)C(=O)O[C@H]1C(=O)O[C@@H]2C[C@H]3C(C)=CC(=O)[C@@H](O)[C@]3(C)[C@H]3[C@@]4(O)OC[C@]32[C@@H]1[C@@H](C)[C@H]4O` had a TGI of 2.9 µM.
In the case of `CCN1C(=O)N(CC)C2C1NN=c1s/c(=C3\C(=O)N(C(C)C)c4ccccc43)c(=O)n12` (stereo not drawn), the GI50 was 0.377 µM and the total growth inhibition concentration (TGI) was found to be 3.13 µM.
Regarding `NC(=O)[C@H]1CCN(c2ncnc(N)c2F)C[C@@H]1N1CCC[C@@H](Nc2cc(Cl)cc(C(F)(F)F)c2)C1=O`, the GI50 is 10.8 µM and the TGI was above 100 µM.
For `CCN(CC)c1ccc(/C=C/c2cc(C)c3ccccc3n2)cc1`, in that order: 3.43 µM and 15.3 µM.
With `Cc1ccc2[nH]c(C(=O)NN3C(=O)CSC34CCCCC4C)c(-c3ccccc3)c2c1` (stereo not drawn), the GI50 was 18.2 µM and the TGI was determined as 44.1 µM.
The matching figures for `O=C(CCl)c1ccc([N+](=O)[O-])o1`: 2.21 µM and 5.01 µM.

A further assay relates to HCT-116 colon. The assay can be described thus: DTP human tumour cell line panel, 48 h.
Turning to `CC[C@](C)(O)C(=O)O[C@H]1C(=O)O[C@@H]2C[C@H]3C(C)=CC(=O)[C@@H](O)[C@]3(C)[C@H]3[C@@]4(O)OC[C@]32[C@@H]1[C@@H](C)[C@H]4O`, the GI50 was 0.22 µM; the TGI was 0.957 µM and 0.376 µM.
In the case of `CCN1C(=O)N(CC)C2C1NN=c1s/c(=C3\C(=O)N(C(C)C)c4ccccc43)c(=O)n12` (stereo not drawn), the GI50 is 0.377 µM and the TGI is above 100 µM.
For the compound `NC(=O)[C@H]1CCN(c2ncnc(N)c2F)C[C@@H]1N1CCC[C@@H](Nc2cc(Cl)cc(C(F)(F)F)c2)C1=O`, the GI50 was 15.5 µM and the TGI was found to be 43 µM.
Take `CCN(CC)c1ccc(/C=C/c2cc(C)c3ccccc3n2)cc1`: the GI50 is 4.06 µM and the TGI is 16.4 µM.
In the case of `Cc1ccc2[nH]c(C(=O)NN3C(=O)CSC34CCCCC4C)c(-c3ccccc3)c2c1` (stereo not drawn), the GI50 was 14.5 µM and the TGI stood at 34.2 µM.
Regarding `O=C(CCl)c1ccc([N+](=O)[O-])o1`, the GI50 is 0.519 µM and the TGI is 2.4 µM.

Another assay concerns HOP-62 NSCLC. The assay can be described thus: DTP human tumour cell line panel, 48 h.
Regarding `CC[C@](C)(O)C(=O)O[C@H]1C(=O)O[C@@H]2C[C@H]3C(C)=CC(=O)[C@@H](O)[C@]3(C)[C@H]3[C@@]4(O)OC[C@]32[C@@H]1[C@@H](C)[C@H]4O`, the GI50 was 0.165 µM; the TGI was 1.19 µM and 0.368 µM.
As to `CCN1C(=O)N(CC)C2C1NN=c1s/c(=C3\C(=O)N(C(C)C)c4ccccc43)c(=O)n12` (stereo not drawn), the GI50 is 0.441 µM and the TGI was found to be 42.7 µM.
For `NC(=O)[C@H]1CCN(c2ncnc(N)c2F)C[C@@H]1N1CCC[C@@H](Nc2cc(Cl)cc(C(F)(F)F)c2)C1=O`, the GI50 is 22 µM and the TGI is above 100 µM.
As to `CCN(CC)c1ccc(/C=C/c2cc(C)c3ccccc3n2)cc1`, the GI50 was 4.6 µM and the TGI was 34.7 µM.
For `Cc1ccc2[nH]c(C(=O)NN3C(=O)CSC34CCCCC4C)c(-c3ccccc3)c2c1` (stereo not drawn), in that order: 18 µM and 33.9 µM.
For `O=C(CCl)c1ccc([N+](=O)[O-])o1`, in that order: 7.58 µM and 17.6 µM.

In another assay the test system is LOX IMVI melanoma. Briefly: DTP human tumour cell line panel, 48 h.
Consider `CC[C@](C)(O)C(=O)O[C@H]1C(=O)O[C@@H]2C[C@H]3C(C)=CC(=O)[C@@H](O)[C@]3(C)[C@H]3[C@@]4(O)OC[C@]32[C@@H]1[C@@H](C)[C@H]4O`, for which the GI50 is 0.0563 µM; the TGI is 0.278 µM and 0.545 µM.
As to `CCN1C(=O)N(CC)C2C1NN=c1s/c(=C3\C(=O)N(C(C)C)c4ccccc43)c(=O)n12` (stereo not drawn), the GI50 was 0.463 µM and the TGI was above 100 µM.
As for `NC(=O)[C@H]1CCN(c2ncnc(N)c2F)C[C@@H]1N1CCC[C@@H](Nc2cc(Cl)cc(C(F)(F)F)c2)C1=O`, the GI50 is 11.2 µM and the TGI worked out at 27.1 µM.
As to `CCN(CC)c1ccc(/C=C/c2cc(C)c3ccccc3n2)cc1`, the GI50 was 4.67 µM and the TGI amounted to 28.1 µM.
The matching figures for `Cc1ccc2[nH]c(C(=O)NN3C(=O)CSC34CCCCC4C)c(-c3ccccc3)c2c1` (stereo not drawn): 18.9 µM and 35.6 µM.
For the compound `O=C(CCl)c1ccc([N+](=O)[O-])o1`, the GI50 was 1.47 µM and the TGI turned out to be 3.19 µM.

A further assay has as its system NCI-H460 lung. The assay can be described thus: DTP human tumour cell line panel, 48 h.
With `CC[C@](C)(O)C(=O)O[C@H]1C(=O)O[C@@H]2C[C@H]3C(C)=CC(=O)[C@@H](O)[C@]3(C)[C@H]3[C@@]4(O)OC[C@]32[C@@H]1[C@@H](C)[C@H]4O`, the concentration for 50% growth inhibition (GI50) was 0.184 µM; the TGI is 1.12 µM and 0.327 µM.
With `CCN1C(=O)N(CC)C2C1NN=c1s/c(=C3\C(=O)N(C(C)C)c4ccccc43)c(=O)n12` (stereo not drawn), the GI50 was 0.354 µM and the TGI was above 100 µM.
Take `NC(=O)[C@H]1CCN(c2ncnc(N)c2F)C[C@@H]1N1CCC[C@@H](Nc2cc(Cl)cc(C(F)(F)F)c2)C1=O`: the GI50 is 18.4 µM and the TGI came to 41.6 µM.
Turning to `CCN(CC)c1ccc(/C=C/c2cc(C)c3ccccc3n2)cc1`, the GI50 was 3 µM and the total growth inhibition concentration (TGI) was determined as 11.7 µM.
As to `Cc1ccc2[nH]c(C(=O)NN3C(=O)CSC34CCCCC4C)c(-c3ccccc3)c2c1` (stereo not drawn), the GI50 is 18.2 µM and the total growth inhibition concentration (TGI) was found to be 43.7 µM.
In the case of `O=C(CCl)c1ccc([N+](=O)[O-])o1`, the GI50 is 10.3 µM and the TGI worked out at 28.1 µM.

The next assay concerns OVCAR-4 ovarian. Briefly: DTP human tumour cell line panel, 48 h.
`CC[C@](C)(O)C(=O)O[C@H]1C(=O)O[C@@H]2C[C@H]3C(C)=CC(=O)[C@@H](O)[C@]3(C)[C@H]3[C@@]4(O)OC[C@]32[C@@H]1[C@@H](C)[C@H]4O`: the concentration for 50% growth inhibition (GI50) was 0.112 µM; the TGI was 1.26 µM and 0.923 µM.
Regarding `CCN1C(=O)N(CC)C2C1NN=c1s/c(=C3\C(=O)N(C(C)C)c4ccccc43)c(=O)n12` (stereo not drawn), the GI50 was 1.6 µM and the total growth inhibition concentration (TGI) was above 100 µM.
With `NC(=O)[C@H]1CCN(c2ncnc(N)c2F)C[C@@H]1N1CCC[C@@H](Nc2cc(Cl)cc(C(F)(F)F)c2)C1=O`, the GI50 is 15.6 µM and the TGI amounted to 95.3 µM.
Consider `CCN(CC)c1ccc(/C=C/c2cc(C)c3ccccc3n2)cc1`, for which the GI50 was 8.37 µM and the TGI is above 100 µM.
For `Cc1ccc2[nH]c(C(=O)NN3C(=O)CSC34CCCCC4C)c(-c3ccccc3)c2c1` (stereo not drawn), the GI50 was 16.5 µM and the TGI worked out at 34.2 µM.
Consider `O=C(CCl)c1ccc([N+](=O)[O-])o1`, for which the GI50 was 1.73 µM and the concentration for total growth inhibition (TGI) was found to be 3.32 µM.

The subject of another assay is SNB-75 CNS. Briefly: DTP human tumour cell line panel, 48 h.
Turning to `CC[C@](C)(O)C(=O)O[C@H]1C(=O)O[C@@H]2C[C@H]3C(C)=CC(=O)[C@@H](O)[C@]3(C)[C@H]3[C@@]4(O)OC[C@]32[C@@H]1[C@@H](C)[C@H]4O`, the GI50 is 0.258 µM; the TGI is 1.02 µM and 0.17 µM.
With `CCN1C(=O)N(CC)C2C1NN=c1s/c(=C3\C(=O)N(C(C)C)c4ccccc43)c(=O)n12` (stereo not drawn), the concentration for 50% growth inhibition (GI50) was 0.317 µM and the TGI turned out to be 20.9 µM.
For the compound `NC(=O)[C@H]1CCN(c2ncnc(N)c2F)C[C@@H]1N1CCC[C@@H](Nc2cc(Cl)cc(C(F)(F)F)c2)C1=O`, the GI50 is 12.6 µM and the TGI turned out to be 39.1 µM.
`CCN(CC)c1ccc(/C=C/c2cc(C)c3ccccc3n2)cc1`: the GI50 is 3.09 µM and the total growth inhibition concentration (TGI) worked out at 9.4 µM.
Turning to `Cc1ccc2[nH]c(C(=O)NN3C(=O)CSC34CCCCC4C)c(-c3ccccc3)c2c1` (stereo not drawn), the GI50 was 19.6 µM and the TGI came out at 38.1 µM.
`O=C(CCl)c1ccc([N+](=O)[O-])o1`: the GI50 was 3.06 µM and the TGI was determined as 9.16 µM.

The test system of the next assay is UACC-62 melanoma. The assay can be described thus: DTP human tumour cell line panel, 48 h.
In the case of `CC[C@](C)(O)C(=O)O[C@H]1C(=O)O[C@@H]2C[C@H]3C(C)=CC(=O)[C@@H](O)[C@]3(C)[C@H]3[C@@]4(O)OC[C@]32[C@@H]1[C@@H](C)[C@H]4O`, the GI50 was 0.149 µM; the TGI is 0.705 µM and 0.178 µM.
As to `CCN1C(=O)N(CC)C2C1NN=c1s/c(=C3\C(=O)N(C(C)C)c4ccccc43)c(=O)n12` (stereo not drawn), the GI50 is 0.466 µM and the TGI is above 36.2 µM.
`NC(=O)[C@H]1CCN(c2ncnc(N)c2F)C[C@@H]1N1CCC[C@@H](Nc2cc(Cl)cc(C(F)(F)F)c2)C1=O`: the GI50 is 13.9 µM and the TGI was found to be 29.5 µM.
Take `CCN(CC)c1ccc(/C=C/c2cc(C)c3ccccc3n2)cc1`: the GI50 was 3.31 µM and the TGI is 22.6 µM.
In the case of `Cc1ccc2[nH]c(C(=O)NN3C(=O)CSC34CCCCC4C)c(-c3ccccc3)c2c1` (stereo not drawn), the GI50 was 12.8 µM and the TGI worked out at 26.8 µM.
Take `O=C(CCl)c1ccc([N+](=O)[O-])o1`: the GI50 is 2.13 µM and the TGI worked out at 5.62 µM.

For the origin of these results see PubChem BioAssay (NCI).
